“And” between values parts separate entries of the source, which are not always exact repeats. Equal values may be shown once. Records with an inconclusive call do not appear.

The assay concerns BDF1 mice, Friend leukemia sc, tumor weight T/C. The assay is described as follows: NCI In Vivo Anticancer Drug Screen. Data for tumor model Friend Virus Leukemia (Solid) (subcutaneous) in B6D2F1 (BDF1) mice. The settings on record: endpoint: mean tumor weight, higher = larger tumour. As for the experimental part:
The antitumor activity of compounds was measured in mice bearing transplantable tumors. Survival or tumor size were measured and the results are expressed as the measurement made in the treated group (T) divided by the measurement made in the vehicle treated control group (C). The tumor model used in this assay is Friend Virus Leukemia (Solid) (subcutaneous) in B6D2F1 (BDF1) mice

[1] abbreviates: dose: 6.0 mg/kg/injection, schedule: Q01DX011 (ip), vehicle: carboxymethylcellulose (CMC).
[2] abbreviates: dose: 25.0 mg/kg/injection, schedule: Q01DX011 (ip), vehicle: carboxymethylcellulose (CMC).
[3] abbreviates: dose: 50.0 mg/kg/injection, schedule: Q01DX011 (ip), vehicle: carboxymethylcellulose (CMC).
Setting [4] is: dose: 100.0 mg/kg/injection, schedule: Q01DX011 (ip), vehicle: carboxymethylcellulose (CMC).
Setting [5] is: dose: 37.5 mg/kg/injection, schedule: Q01DX011 (ip), vehicle: carboxymethylcellulose (CMC).
Where [6] appears, read: dose: 15.0 mg/kg/injection, schedule: Q01DX011 (ip), vehicle: saline.
The mark [7] stands for this setting: dose: 30.0 mg/kg/injection, schedule: Q01DX011 (ip), vehicle: saline.
Where [8] appears, read: dose: 60.0 mg/kg/injection, schedule: Q01DX011 (ip), vehicle: carboxymethylcellulose (CMC).
Where [9] appears, read: dose: 75.0 mg/kg/injection, schedule: Q01DX011 (ip), vehicle: carboxymethylcellulose (CMC).
Where [10] appears, read: dose: 5.0 mg/kg/injection, schedule: Q01DX011 (ip), vehicle: carboxymethylcellulose (CMC).
Where [11] appears, read: dose: 10.0 mg/kg/injection, schedule: Q01DX011 (ip), vehicle: carboxymethylcellulose (CMC).
Where [12] appears, read: dose: 20.0 mg/kg/injection, schedule: Q01DX011 (ip), vehicle: carboxymethylcellulose (CMC).
Setting [13] is: dose: 40.0 mg/kg/injection, schedule: Q01DX011 (ip), vehicle: carboxymethylcellulose (CMC).
Setting [14] is: dose: 80.0 mg/kg/injection, schedule: Q01DX011 (ip), vehicle: carboxymethylcellulose (CMC).
Where [15] appears, read: dose: 15.0 mg/kg/injection, schedule: Q01DX011 (ip), vehicle: carboxymethylcellulose (CMC).

As for `ClCCn1cnc2c(SCc3ccccc3Cl)ncnc21`, the T/C was 72 % of control (dose: 3.0 mg/kg/injection, schedule: Q01DX011 (ip), vehicle: carboxymethylcellulose (CMC)); 81 % of control under setting [1]; 77 % of control (dose: 12.0 mg/kg/injection, schedule: Q01DX011 (ip), vehicle: carboxymethylcellulose (CMC)); 36 % of control under setting [2]; 43 % of control under setting [3]; 43 % of control under setting [4]. Besides, the T/C (dose: 200.0 mg/kg/injection, schedule: Q01DX011 (ip), vehicle: carboxymethylcellulose (CMC)) is 10 % of control and 25 % of control; the T/C (dose: 400.0 mg/kg/injection, schedule: Q01DX011 (ip), vehicle: carboxymethylcellulose (CMC)) was 16 % of control.

Regarding `O=C(C[N+]12CN3CN(CN(C3)C1)C2)c1ccc(Cl)cc1`, the T/C is 101 % of control under setting [5]; 117 % of control (dose: 150.0 mg/kg/injection, schedule: Q01DX011 (ip), vehicle: carboxymethylcellulose (CMC)); 93 % of control (dose: 300.0 mg/kg/injection, schedule: Q01DX011 (ip), vehicle: carboxymethylcellulose (CMC)).

On to `CN(C)c1ccc(C(=C(c2ccc(N(C)C)cc2)c2ccc(N(C)C)cc2)c2ccc(N(C)C)cc2)cc1`, for which the T/C was 179 % of control (dose: 3.0 mg/kg/injection, schedule: Q01DX011 (ip), vehicle: olive oil, sesame oil, peanut oil); 178 % of control and 237 % of control (dose: 6.0 mg/kg/injection, schedule: Q01DX011 (ip), vehicle: olive oil, sesame oil, peanut oil); 178 % of control (dose: 12.5 mg/kg/injection, schedule: Q01DX011 (ip), vehicle: olive oil, sesame oil, peanut oil); 65 % of control and 63 % of control (dose: 50.0 mg/kg/injection, schedule: Q01DX011 (ip), vehicle: olive oil, sesame oil, peanut oil); 55 % of control (dose: 200.0 mg/kg/injection, schedule: Q01DX011 (ip), vehicle: olive oil, sesame oil, peanut oil); 82 % of control (dose: 300.0 mg/kg/injection, schedule: Q01DX011 (ip), vehicle: olive oil, sesame oil, peanut oil). Moreover, the T/C (dose: 400.0 mg/kg/injection, schedule: Q01DX011 (ip), vehicle: olive oil, sesame oil, peanut oil) is 80 % of control.

With `CC(CCC(C)OS(C)(=O)=O)OS(C)(=O)=O` (stereo not given), the T/C is 82 % of control (dose: 0.5 mg/kg/injection, schedule: Q01DX011 (ip), vehicle: carboxymethylcellulose (CMC)); 91 % of control (dose: 1.0 mg/kg/injection, schedule: Q01DX011 (ip), vehicle: carboxymethylcellulose (CMC)); 103 % of control (dose: 2.0 mg/kg/injection, schedule: Q01DX011 (ip), vehicle: carboxymethylcellulose (CMC)); 105 % of control (dose: 4.0 mg/kg/injection, schedule: Q01DX011 (ip), vehicle: carboxymethylcellulose (CMC)); 98 % of control under setting [1]; 56 % of control (dose: 6.25 mg/kg/injection, schedule: Q01DX011 (ip), vehicle: carboxymethylcellulose (CMC)).

As for `Cn1c(O)c(N=NC(N)=S)c2ccccc21`, the T/C is 110 % of control under setting [6]; 105 % of control under setting [7]; 108 % of control (dose: 60.0 mg/kg/injection, schedule: Q01DX011 (ip), vehicle: saline); 75 % of control (dose: 120.0 mg/kg/injection, schedule: Q01DX011 (ip), vehicle: saline); 94 % of control (dose: 240.0 mg/kg/injection, schedule: Q01DX011 (ip), vehicle: saline).

With `O=c1[nH]c(=O)n(C2CC(O)C(CO)O2)cc1F` (stereo not given), the T/C was 92 % of control (dose: 16.0 mg/kg/injection, schedule: Q01DX011 (ip), vehicle: saline); 109 % of control under setting [2]; 97 % of control (dose: 32.0 mg/kg/injection, schedule: Q01DX011 (ip), vehicle: saline); 72 % of control and 47 % of control under setting [8]; 119 % of control (dose: 84.0 mg/kg/injection, schedule: Q01DX011 (ip), vehicle: saline); 4 % of control and 16 % of control under setting [4]. The T/C is 18 % of control (dose: 120.0 mg/kg/injection, schedule: Q01DX011 (ip), vehicle: carboxymethylcellulose (CMC)); 16 % of control and 30 % of control (dose: 126.0 mg/kg/injection, schedule: Q01DX011 (ip), vehicle: saline).

For the molecule `C[C@]12CC[C@H](OC3OC(CO)C(O)C(O)C3O)C[C@H]1CC[C@@H]1[C@@H]2CC[C@]2(C)[C@@H](C3=CCOC3=O)CC[C@]12O` (stereo not given in full), for the setting “dose: 0.1 mg/kg/injection, schedule: Q01DX011 (ip), vehicle: carboxymethylcellulose (CMC)”, the T/C is 69 % of control.

As for `Cc1cc(N(CCCl)CCCl)ccc1N=Nc1ccccc1C(=O)O`, the T/C is 111 % of control (dose: 5.0 mg/kg/injection, schedule: Q01DX011 (ip), vehicle: saline); 111 % of control (dose: 7.5 mg/kg/injection, schedule: Q01DX011 (ip), vehicle: saline); 105 % of control (dose: 10.0 mg/kg/injection, schedule: Q01DX011 (ip), vehicle: saline); 60 % of control and 73 % of control under setting [6]; 21 % of control (dose: 25.0 mg/kg/injection, schedule: Q01DX011 (ip), vehicle: saline); 20 % of control under setting [7].

On to `Brc1ncnc2nc[nH]c12`, for which the T/C reads like this: under setting [9], 51 % of control; (dose: 113.0 mg/kg/injection, schedule: Q01DX011 (ip), vehicle: carboxymethylcellulose (CMC)) 82 % of control; (dose: 171.0 mg/kg/injection, schedule: Q01DX011 (ip), vehicle: carboxymethylcellulose (CMC)) 43 % of control; (dose: 256.0 mg/kg/injection, schedule: Q01DX011 (ip), vehicle: carboxymethylcellulose (CMC)) 34 % of control.

With `Cc1cc(N(CCCl)CCCl)ccc1C=Nc1ccccc1-c1ccccc1`, the T/C runs as follows: under setting [10], 54 % of control; under setting [11], 70 % of control; under setting [12], 104 % of control; under setting [13], 60 % of control; under setting [14], 77 % of control.

Regarding `CCOC(=O)Sc1ncnc2nc[nH]c12`, the T/C runs as follows: (dose: 7.5 mg/kg/injection, schedule: Q01DX011 (ip), vehicle: carboxymethylcellulose (CMC)) 44 % of control; under setting [15], 48 % of control; under setting [2], 29 % of control and 40 % of control; under setting [3], 17 % of control; under setting [4], 2 % of control.

For `O=C1C(=O)C(Cl)=C(Cl)C(Cl)=C1Cl`, the T/C reads like this: under setting [15], 108 % of control; (dose: 30.0 mg/kg/injection, schedule: Q01DX011 (ip), vehicle: carboxymethylcellulose (CMC)) 90 % of control; under setting [8], 89 % of control.

Regarding `[I][Hg][CH2]C1COCC([CH2][Hg][I])O1.[I][Hg][CH2]C1COCC([CH2][Hg][I])O1` (stereo not given), the T/C reads like this: under setting [11], 75 % of control; under setting [12], 56 % of control; under setting [13], 77 % of control; under setting [14], 45 % of control.

For the molecule `CCOc1ccc(Nc2ncnc3nc[nH]c23)cc1CN(CCCl)CCCl`, the T/C was 101 % of control (dose: 1.0 mg/kg/injection, schedule: Q01DX011 (ip), vehicle: saline) and 70 % of control (dose: 4.0 mg/kg/injection, schedule: Q01DX011 (ip), vehicle: saline).

Consider `CS(=O)(=O)OCCCCCCCCCOS(C)(=O)=O`, for which the T/C is 81 % of control (dose: 18.75 mg/kg/injection, schedule: Q01DX011 (ip), vehicle: carboxymethylcellulose (CMC)); 51 % of control under setting [5]; 49 % of control under setting [9].

As for `CN(C)c1ccc2nc3ccc(=[N+](C)C)cc-3sc2c1`, the T/C is 278 % of control under setting [10], 175 % of control under setting [11], 171 % of control under setting [12] and 235 % of control under setting [13].

As to `C[C@]12CCC(=O)C=C1CC[C@@H]1[C@@H]2[C@@H](O)C[C@@]2(C)[C@H]1CC[C@]2(O)C(=O)COC(=O)CCC(=O)O`, the T/C by setting is: (dose: 75.0 mg/kg/injection, schedule: Q01DX011 (sc), vehicle: steriod suspending solution) 52 % of control; (dose: 150.0 mg/kg/injection, schedule: Q01DX011 (sc), vehicle: steriod suspending solution) 49 % of control; (dose: 300.0 mg/kg/injection, schedule: Q01DX011 (sc), vehicle: steriod suspending solution) 27 % of control.

Consider `O=C(O)C1(NO)CCCC1`, for which the T/C runs as follows: (dose: 12.5 mg/kg/injection, schedule: Q01DX011 (ip), vehicle: carboxymethylcellulose (CMC)) 98 % of control; under setting [2], 78 % of control; under setting [4], 18 % of control and 34 % of control.

For the origin of these results see PubChem BioAssay AID228 (DTP/NCI, 2004).
